Experimental data as given in patent US9133218B2, “Pesticidally active pyridyl- and pyrimidyl-substituted thiazole derivatives” (Syngenta Participations AG, priority 2012, dated 2015).
Like-named read-outs stand apart in the source and are kept apart here.

What was measured:
Assay type in all cases: in vivo
[1] = test system: Myzus persicae (Green Peach Aphid); assay: Activity against Myzus persicae (green peach aphid), sunflower leaf disc spray test; details: foliar, 144 h, read-out: activity (mortality) against Myzus persicae
Text: Activity Against Myzus persicae (Green Peach Aphid)

[2] = test system: Bemisia tabaci (Cotton White Fly); assay: Activity against Bemisia tabaci (cotton white fly), cotton leaf disc spray test; details: foliar, 144 h, read-out: activity (mortality and special effects) against Bemisia tabaci
Experimental: Activity Against Bemisia tabaci (Cotton White Fly)
(§1) Cotton leaf discs were placed on agar in a 24-well microtiter plate and sprayed with test solutions. After drying, the leaf discs were infested with 12 to 18 adults. After an incubation period of 6 days after infestation, samples were checked for mortality and special effects (e.g. phytotoxicity).

[3] = test system: Aedes aegypti (Yellow Fever Mosquito); assay: whole plant or invertebrate; details: 200 ppm in ethanol, adult females, after 48 h and/or 24 h, read-out: control of Aedes aegypti (mortality)
Experimental: Aedes aegypti (Yellow Fever Mosquito)
(§2) Test solutions, at an application rate of 200 ppm in ethanol, were applied to 12 well tissue culture plates. Once the deposits were dry, five, two to five day old adult female Aedes aegypti were added to each well, and sustained with a 10% sucrose solution in a cotton wool plug. Mortality was assessed at 24 and 48 hours after introduction. The following compounds gave at least 80% control of Aedes aegypti after 48 h and/or 24 h: No. 1.026, 1.027, 1.030 and 1.025.

[4] = test system: Frankliniellaoccidentalis (Western Flower Thrips); assay: Activity against Frankliniella occidentalis (western flower thrips), sunflower leaf disc spray test; details: foliar, 168 h, mixed-age population, 7 days after treatment, read-out: activity (mortality and special effects) against Frankliniella occidentalis
Experimental: Activity Against Frankliniellaoccidentalis (Western Flower Thrips)
as §1, with “Sunflower” for “Cotton”, “are” for “were”, “a Frankliniella population of mixed ages.” for “12 to 18 adults.”, “7” for “6”, “treatment,” for “infestation,”

[5] = test system: Heliothis virescens (Tobacco Budworm); assay: Activity against Heliothis virescens (tobacco budworm), eggs on artificial diet; details: eggs 0-24 h old, 4 days incubation, read-out: activity (egg mortality, larval mortality, growth regulation) against Heliothis virescens
Experimental: Activity Against Heliothis virescens (Tobacco Budworm)
Eggs (0-24 h old) are placed in 24-well microtiter plate on artificial diet and treated with test solutions by pipetting. After an incubation period of 4 days, samples are checked for egg mortality, larval mortality, and growth regulation.

[6] = test system: Anopheles stephensi (Indian Malaria Mosquito); assay: Anopheles stephensi (Indian malaria mosquito) contact test on treated plates; details: 200 ppm in ethanol, adult females, after 48 h and/or 24 h, read-out: control of Anopheles stephensi (mortality)
Experimental: Anopheles stephensi (Indian Malaria Mosquito)
as §2, with “Anopheles stephensi” for “Aedes aegypti”, “1.026” for “1.026, 1.027, 1.030”, “1.030.” for “1.025.”

[7] = test system: Tetranychusurticae (Two-Spotted Spider Mite); assay: whole plant or invertebrate; details: Tetranychus urticae, foliar, 192 h, read-out: activity (egg, larval and adult mortality) against Tetranychus urticae
Text: Activity Against Tetranychusurticae (Two-Spotted Spider Mite)
Bean leaf discs on agar in 24-well microtiter plates are sprayed with test solutions. After drying, the leaf discs are infested with mite populations of mixed ages. 8 days later, discs are checked for egg mortality, larval mortality, and adult mortality.

[8] = test system: Spodoptera littoralis (Egyptian Cotton Leaf Worm); assay: Activity against Spodoptera littoralis (Egyptian cotton leaf worm), systemic lettuce test; details: 120 h, systemic via lettuce roots, 5 days after infestation, read-out: activity (mortality, repellent effect, feeding behavior, growth regulation) against Spodoptera littoralis
Text: Activity Against Spodoptera littoralis (Egyptian Cotton Leaf Worm)
Test compounds were applied by pipette into 24 well plates and mixed with agar. Lettuce seeds were placed on the agar and the multi well plate is closed by another plate which contains also agar. After 7 days the roots have absorbed the compound and the lettuce has grown into the lid plate. The lettuce leafs were now cut off into the lid plate. Spodoptera eggs were pipetted through a plastic stencil on a humid gel blotting paper and the plate closed with it. The samples are checked for mortality, repellent effect, feeding behavior, and growth regulation 5 days after infestation.

[9] = 200 ppm, mixed-age aphid population, 6 days incubation
[10] = 200 ppm, adults, 6 days after infestation

Structure (SMILES) | mortality at 200 ppm [1, 9] | mortality at 200 ppm [2, 10] | also measured
Cc1nc(-c2cccnc2)sc1-c1ccc2c(n1)/C(=N/O)CCC2 (single isomer, unassigned) [Compound 1.025, 2-[4-methyl-2-(3-pyridyl)thiazol-5-yl]-6,7-dihydro-5H-quinolin-8-one oxime] | > 80% | > 80% | mortality at 200 ppm [3]: ≥ 80%
CO/N=C1\CCCc2ccc(-c3cnc(-c4cccnc4)s3)nc21 [Compound 1.002] | > 80% | > 80% | mortality at 200 ppm [4]: > 80%; mortality at 200 ppm [5]: > 80%
CCO/N=C1\CCCc2ccc(-c3cnc(-c4cccnc4)s3)nc21 [Compound 1.003] | > 80% | > 80% | –
CO/N=C1\CCCc2ccc(-c3sc(-c4cccnc4)nc3C)nc21 [Compound 1.026] | > 80% | > 80% | mortality at 200 ppm [6]: ≥ 80%; mortality at 200 ppm [3]: ≥ 80%
CCO/N=C1\CCCc2ccc(-c3sc(-c4cccnc4)nc3C)nc21 [Compound 1.027] | > 80% | > 80% | mortality at 200 ppm [3]: ≥ 80%
CCCO/N=C1\CCCc2ccc(-c3sc(-c4cccnc4)nc3C)nc21 [Compound 1.028] | > 80% | > 80% | mortality at 200 ppm [7]: > 80%
Cc1nc(-c2cccnc2)sc1-c1ccc2c(n1)/C(=N/OC(C)C)CCC2 [Compound 1.029] | > 80% | > 80% | –
C=CCO/N=C1\CCCc2ccc(-c3sc(-c4cccnc4)nc3C)nc21 [Compound 1.030] | > 80% | > 80% | mortality at 200 ppm [6]: ≥ 80%; mortality at 200 ppm [3]: ≥ 80%
CO/N=C1\CCOc2ccc(-c3sc(-c4cccnc4)nc3C)nc21 [Compound 1.032, N-methoxy-6-[4-methyl-2-(3-pyridyl)thiazol-5-yl]-2,3-dihydropyrano[3,2-b]pyridin-4-imine] | > 80% | > 80% | –
CCO/N=C1\CCOc2ccc(-c3sc(-c4cccnc4)nc3C)nc21 [Compound 1.033] | > 80% | > 80% | –
Cc1nc(-c2cccnc2)sc1-c1ccc2c(n1)/C(=N/OC(C)C)CCO2 [Compound 1.035] | > 80% | > 80% | –
C=CCO/N=C1\CCOc2ccc(-c3sc(-c4cccnc4)nc3C)nc21 [Compound 1.036] | > 80% | > 80% | –
Cc1nc(-c2cccnc2)sc1-c1ccc2c(n1)/C(=N/OCCCc1ccccc1)CCC2 [Compound 1.049] | > 80% | > 80% | –
Cc1nc(-c2cccnc2)sc1-c1ccc2c(n1)/C(=N/OCC(F)F)CCC2 [Compound 1.050] | > 80% | – | mortality at 12.5 ppm [8]: > 80%
Cc1nc(-c2cccnc2)sc1-c1ccc2c(n1)/C(=N/OCCCC1OCCO1)CCC2 [Compound 1.051] | > 80% | – | –
Cc1nc(-c2cccnc2)sc1-c1ccc2c(n1)/C(=N/OCCc1ccc(F)cc1)CCC2 [Compound 1.053] | > 80% | – | mortality at 12.5 ppm [8]: > 80%
Cc1nc(-c2cccnc2)sc1-c1ccc2c(n1)/C(=N/OCCC1CCCN1C)CCC2 (stereo not drawn) [Compound 1.054] | > 80% | – | –
Cc1nc(-c2cccnc2)sc1-c1ccc2c(n1)/C(=N/OCc1ccc(Cl)cc1)CCC2 [Compound 1.062] | > 80% | – | –
Cc1nc(-c2cccnc2)sc1-c1ccc2c(n1)/C(=N/OCC#Cc1ccccc1)CCC2 [Compound 1.063] | > 80% | – | mortality at 200 ppm [7]: > 80%

Structure (SMILES) | mortality at 200 ppm [1, 9] | mortality at 200 ppm [2, 10] | also measured
Cc1nc(-c2cccnc2)sc1-c1ccc2c(n1)/C(=N/OCC1CCCCC1)CCC2 [Compound 1.064] | > 80% | – | –
Cc1nc(-c2cccnc2)sc1-c1ccc2c(n1)/C(=N/OCCSc1ccc(F)cc1)CCC2 [Compound 1.065] | – | – | mortality at 200 ppm [5]: > 80%
Cc1nc(-c2cccnc2)sc1-c1ccc2c(n1)/C(=N/OCC1OCCO1)CCC2 [Compound 1.066] | > 80% | – | –
Cc1nc(-c2cccnc2)sc1-c1ccc2c(n1)/C(=N/OCc1cc(C(F)(F)F)cc(C(F)(F)F)c1)CCC2 [Compound 1.067] | – | – | mortality at 12.5 ppm [8]: > 80%
Cc1nc(-c2cccnc2)sc1-c1ccc2c(n1)/C(=N/OCc1ccccc1)CCC2 [Compound 1.068] | > 80% | – | –
CO/N=C1\CCSc2sc(-c3sc(-c4cccnc4)nc3C)nc21 [Compound 3.050, N-methoxy-2-[4-methyl-2-(3-pyridyl)thiazol-5-yl]-5,6-dihydrothiopyrano[3,2-d]thiazol-7-imine] | > 80% | > 80% | –
CCO/N=C1\CCSc2sc(-c3sc(-c4cccnc4)nc3C)nc21 [Compound 3.051] | > 80% | > 80% | –
C=CCO/N=C1\CCSc2sc(-c3sc(-c4cccnc4)nc3C)nc21 [Compound 3.053] | > 80% | > 80% | –
CN/N=C1\CCCc2ccc(-c3sc(-c4cccnc4)nc3C)nc21 [Compound 6.009] | > 80% | – | –
COC(=O)N/N=C1\CCCc2ccc(-c3sc(-c4cccnc4)nc3C)nc21 [Compound 6.011, Methyl N-[(E)-[2-[4-methyl-2-(3-pyridyl)thiazol-5-yl]-6,7-dihydro-5H-quinolin-8-ylidene]amino]carbamate] | > 80% | > 80% | –
CN/N=C1\CCOc2ccc(-c3sc(-c4cccnc4)nc3C)nc21 [Compound 6.016] | > 80% | – | –
COC(=O)N/N=C1\CCOc2ccc(-c3sc(-c4cccnc4)nc3C)nc21 [Compound 6.018] | – | > 80% | –
COC(=O)N(C)/N=C1\CCOc2ccc(-c3sc(-c4cccnc4)nc3C)nc21 [Compound 6.019] | – | – | mortality at 200 ppm [1]: > 80%; mortality at 200 ppm [2]: > 80%
Cc1nc(-c2cccnc2)sc1-c1ccc2c(n1)/C(=N/N(C)S(C)(=O)=O)CCO2 [Compound 6.021] | – | > 80% | –
Cc1nc(-c2cccnc2)sc1-c1ccc2c(n1)/C(=N/Nc1ccc(F)cc1)CCC2 [Compound 6.029] | > 80% | – | –
Cc1nc(-c2cccnc2)sc1-c1ccc2c(n1)/C(=N/NCC(F)(F)F)CCC2 [Compound 6.032] | > 80% | – | –
Cc1nc(-c2cccnc2)sc1-c1ccc2c(n1)/C(=N\NCC(F)(F)F)CCC2 [Compound 6.033] | > 80% | – | mortality at 200 ppm [5]: > 80%
COc1ccc(N/N=C2\CCCc3ccc(-c4sc(-c5cccnc5)nc4C)nc32)cc1 [Compound 6.034] | > 80% | – | –
Cc1nc(-c2cccnc2)sc1-c1ccc2c(n1)/C(=N/NC(C)(C)C)CCC2 [Compound 6.035] | > 80% | – | –
